A short description of data set [1]: Measured log D (lipophilicity). The class given is physicochemical.
Data set [2] in a line: Brain positron emission tomography (PET) imaging study, dynamic PET. To be noted: rhesus monkey PET; for order of brain tracer penetration: three 18F-cromolyn analogs compared. Format: in vivo. On the procedure:
Dynamic PET imaging (GE Discovery MI Scanner) in a rhesus monkey was performed with compound 5 (diethyl ester), compound 6 (di-tert-butyl ester), and ^18F-Cromolyn (diacid).

The logD is lipophilicity at a set pH, counting ionised and neutral species.

On to `CCOC(=O)c1cc(=O)c2c(OCC([18F])COc3cccc4oc(C(=O)OCC)cc(=O)c34)cccc2o1` [Compound 5], for which, in data set [1], the logD worked out at 2.5. Moreover, in data set [2], the regional brain uptake entry is “uptake in all regions of the brain with the highest in putamen, grey matter and cerebellum followed by caudate, thalamus and white matter”; the “time of maximum brain uptake” value was 2 min; the washout from brain entry is “washout was slow”; the “order of brain tracer penetration” value is recorded as “diethyl ester>di-tert-butyl ester>diacid”. The maximum brain uptake in data set [2] (at 2 min) came to 2.3 SUV. Besides, the “brain uptake during washout” value in data set [2] (at 20 min) amounted to 2 SUV. For the same compound, the “brain uptake during washout” value in data set [2] (at 60 min) came to 1.5 SUV.
In data set [1], `CC(C)(C)OC(=O)c1cc(=O)c2c(OCC([18F])COc3cccc4oc(C(=O)OC(C)(C)C)cc(=O)c34)cccc2o1` [Compound 6] came in with a pH-dependent lipophilicity (logD) of 3.5. Also, the “order of brain tracer penetration” value in data set [2] is listed as “diethyl ester>di-tert-butyl ester>diacid”.
As to `O=C(O)c1cc(=O)c2c(OCC([18F])COc3cccc4oc(C(=O)O)cc(=O)c34)cccc2o1` [^18F-Cromolyn (diacid), reference compound], in data set [2], the “order of brain tracer penetration” value is given as “diethyl ester>di-tert-butyl ester>diacid”.

Source of the values: US12383528B2, “Cromolyn esters and uses thereof” (The General Hospital Corporation, priority 2018, dated 2025).
